Patent US20250163091A1, “FUNCTIONALIZED HUMAN MILK OLIGOSACCHARIDES AND METHODS FOR PRODUCING THEM” (The Regents of the University of California, priority 2022, published 2025)

Assay: Assays for synthesizing FDS-LNTβNHCbz (48) from S-LNF-IIβNHCbz (37)
Assay type: biochemical
Conditions: 30° C., analyzed by HRMS at 24 hours and 72 hours
Experimental: Assays for synthesizing FDS-LNTβNHCbz (48) from S-LNF-IIβNHCbz (37). Assays were carried out at 30° C. in a total volume of 10 μL in Tris-HCl buffer (100 mM, pH 7.5) containing (10 mM), CMP-Neu5Ac (15 mM), MgCl2 (20 mM), MBP-Δ50hST6GALNAC V_ext20-Hiss ([…]), MBP-Δ50hST6GALNAC V_V99M-His6, or MBP-Δ50hST6GALNAC V_V99M_ext20-His6. The reactions were analyzed by HRMS at 24 hours and 72 hours. The formation of FDS-LNTβNHCbz (48) was observed (FIGS. 71A and 71B), and the conversion was around 40-50% after 72 h incubation using MBP-Δ50hST6GALNAC V_ext20-His6.

MBP-Δ50hST6GALNAC V_V99M-His6: V99M mutant of recombinant human ST6GALNAC V with N-terminal MBP and C-terminal His6
formation of FDS-LNTβNHCbz (48): formation of the target product was also observed
